Data taken from US10195201B2, “Heteroaryl-pyrimidinone compounds as PDE2 inhibitors” (Merck Sharp & Dohme Corp., priority 2015, dated 2019).
Like-named read-outs stand apart in the source and are kept apart here.

Target: Rhesus PDE2A3 (Macaca mulatta, UniProt B3VTJ2)
Assay: PDE2 fluorescence polarization (IMAP FP) inhibition assay, rhesus enzyme
Type: biochemical, rhesus macaque
Protocol: The activity of the compounds in accordance with the present invention as PDE2 inhibitors may be readily determined using a fluorescence polarization (FP) methodology (Huang, W., et al., J. Biomol Screen, 2002, 7: 215).
In a typical experiment the PDE2 inhibitory activity of the compounds of the present invention was determined in accordance with the following experimental method. Rhesus PDE2A3 was amplified from rhesus macaque brain cDNA (Biochain Institute, Hayward, Calif.) using primers based on human PDE2A sequence (accession NM_002599.3) where the forward primer containing a Kozak consensus was 5′-[…]-3′ and the reverse primer was 5′-[…]-3′. Amplification with Easy-A High-Fidelity PCR cloning enzyme (Stratagene, La Jolla, Calif.) was 95° C. for 2 minutes followed by thirty three cycles of 95° C. for 40 seconds, 52° C. for 30 seconds, and 72° C. for 2 minutes 48 seconds. Final extension was 72° C. for 7 minutes. The PCR product was TA cloned into pcDNA3.3-TOPO (Invitrogen, Carlsbad, Calif.) according to standard protocol. A consensus sequence was developed from multiple clones and then deposited into GenBank (EU812167). AD293 cells (Stratagene, La Jolla, Calif.) with 70-80% confluency were transiently transfected with rhesus PDE2A3/pcDNA3.3-TOPO using Lipofectamine 2000 according to manufacturer specifications (Invitrogen, Carlsbad, Calif.). Cells were harvested 48 hours post-transfection and lysed by sonication (setting 3, 10×5 sec pulses) in a buffer containing 20 mM HEPES pH 7.4, 1 mM EDTA and Complete Protease Inhibitor Cocktail Tablets (Roche, Indianapolis, Ind.). Lysate was collected by centrifugation at 75,000×g for 20 minutes at 4° C. and supernatant utilized for evaluation of PDE2 activity. The fluorescence polarization assay for cyclic nucleotide phosphodiesterases was performed using an IMAP® FP kit supplied by Molecular Devices, Sunnyvale, Calif. (product # R8139). […] Assays were performed at room temperature in 384-well microtiter plates with an incubation volume of 20.2 μL. Solutions of test compounds were prepared in DMSO and serially diluted with DMSO to yield 8 μL of each of 10 solutions differing by 3-fold in concentration, at 32 serial dilutions per plate. […] 0% of inhibition is determined by using DMSO (1% final concentrations).
A Labcyte Echo 555 (Labcyte, Sunnyvale, Calif.) is used to dispense 200 nL from each well of the titration plate to the 384 well assay plate. Ten microliters of a solution of enzyme (1/2000 final dilution from aliquots; sufficient to produce 20% substrate conversion) was added to the assay plate. Next 10 uL of a separate solution of the substrate FAM-labeled cAMP (50 nM final concentration product # R7506 from Molecular Devices) and the activator cGMP (1 uM final concentration), prepared in the assay buffer (10 mM Tris HCl, pH 7.2, 10 mM MgCl2, 0.05% NaN3 0.01% Tween-20, and 1 mM DTT) was added to the assay plate and shaken to mix. The reaction is allowed to proceed at room temperature for 60 minutes. A binding solution is then made from the kit components, comprised of 80% Solution A, 20% Solution B and binding reagent at a volume of 1/600 the total binding solution. The enzymatic reaction is stopped by addition of 60 μL of the binding solution to each well of the assay plates and the plates are sealed and shaken for 30 seconds. The plate was incubated at room temperature for at least one hour prior to determining the fluorescence polarization (FP). The parallel and perpendicular fluorescence of each well of the plate was measured using a Tecan Genios Pro plate reader (Tecan, Switzerland) or Perkin Elmer EnVision™ plate reader (Waltham, Mass.). Fluorescence polarization (mP) was calculated from the parallel (S) and perpendicular (P) fluorescence of each sample well and the analogous values for the median control well, containing only substrate (So and Po), using the following equation: Polarization (mP)=1000*(S/So−P/Po)/(S/So+P/Po).

[1] = LabB, read-out: rhPDE2 Ki (nM) LabB
[2] = LabA, read-out: rhPDE2 Ki (nM) LabA

Rhesus PDE2A3, sequence (B3VTJ2 1-941): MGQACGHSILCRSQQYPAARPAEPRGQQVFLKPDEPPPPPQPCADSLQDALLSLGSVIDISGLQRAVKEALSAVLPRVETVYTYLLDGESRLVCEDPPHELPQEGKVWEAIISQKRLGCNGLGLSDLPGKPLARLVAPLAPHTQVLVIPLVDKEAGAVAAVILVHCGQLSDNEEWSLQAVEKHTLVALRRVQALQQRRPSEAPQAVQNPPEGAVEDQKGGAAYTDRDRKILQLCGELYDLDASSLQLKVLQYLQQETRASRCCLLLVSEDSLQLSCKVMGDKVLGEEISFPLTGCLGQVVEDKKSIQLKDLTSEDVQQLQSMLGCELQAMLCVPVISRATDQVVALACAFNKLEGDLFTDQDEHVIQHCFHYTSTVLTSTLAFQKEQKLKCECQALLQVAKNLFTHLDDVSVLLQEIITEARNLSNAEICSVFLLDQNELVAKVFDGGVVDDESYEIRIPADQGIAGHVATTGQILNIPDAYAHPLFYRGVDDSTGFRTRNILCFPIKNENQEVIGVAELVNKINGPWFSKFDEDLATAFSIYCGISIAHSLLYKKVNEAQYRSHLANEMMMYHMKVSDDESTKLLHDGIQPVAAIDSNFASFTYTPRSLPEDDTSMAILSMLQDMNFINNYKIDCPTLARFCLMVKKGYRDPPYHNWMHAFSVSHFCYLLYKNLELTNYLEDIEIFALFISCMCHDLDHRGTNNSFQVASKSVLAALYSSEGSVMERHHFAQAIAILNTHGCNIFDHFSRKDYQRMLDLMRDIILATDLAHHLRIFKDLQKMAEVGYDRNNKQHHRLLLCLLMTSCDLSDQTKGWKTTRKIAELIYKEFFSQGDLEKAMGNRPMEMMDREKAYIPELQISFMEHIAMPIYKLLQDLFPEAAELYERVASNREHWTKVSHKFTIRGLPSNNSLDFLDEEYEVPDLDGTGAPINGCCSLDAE

Row | SMILES | Ki [1] [nM] | Ki [2] [nM]
1 | CCC(c1ccc(C(F)(F)F)cc1F)n1cnc(-c2cc(=O)[nH]c(C)n2)c1 (stereo not drawn) [Example 20, 6-(1-(1-(2-Fluoro-4-(trifluoromethyl)phenyl)propyl)-1H-imidazol-4-yl)-2-methylpyrimidin-4(3H)-one] | 123 | –
2 | Cc1nc(-c2cc(C(C)c3ccc(C(F)(F)F)cc3)ccn2)cc(=O)[nH]1 (stereo not drawn) [Example 22, 2-methyl-6-(4-(1-(4-(trifluoromethyl)phenyl)ethyl)pyridin-2-yl)pyrimidin-4(3H)-one] | 868 | 920
3 | Cc1nc(-c2ncc(C(C)c3ccc(C(F)(F)F)cc3)[nH]2)cc(=O)[nH]1 (stereo not drawn) [Example 13, 2-Methyl-6-(5-(1-(4-(trifluoromethyl)phenyl)ethyl)-1H-imidazol-2-yl)pyrimidin-4(3H)-one] | 631 | 868
4 | Cc1nc(-c2noc(C(C)c3ccc(C(F)(F)F)cc3)n2)cc(=O)[nH]1 (stereo not drawn) [Example 11, 2-Methyl-6-(5-(1-(4-(trifluoromethyl)phenyl)ethyl)-1,2,4-oxadiazol-3-yl)pyrimidin-4(3H)-one] | 1750 | 1080
5 | Cc1nc(-c2cncc([C@@H](C)c3ccc(C(F)(F)F)cc3)c2)cc(=O)[nH]1 (single isomer, unassigned) [Example 24] | – | 826
6 | Cc1nc(-c2cn(C(c3ccc(C(F)(F)F)cc3F)C(C)C)cn2)cc(=O)[nH]1 (stereo not drawn) [Example 21, 6-(1-(1-(2-Fluoro-4-(trifluoromethyl)phenyl)-2-methylpropyl)-1H-imidazol-4-yl)-2-methylpyrimidin-4(3H)-one] | 110 | –
7 | Cc1nc(-c2cncc([C@@H](C)c3ccc(C(F)(F)F)cc3)c2)cc(=O)[nH]1 (single isomer, unassigned) [Example 23] | – | > 1000
8 | Cc1nc(-c2nc(C(C)c3ccc(C(F)(F)F)cc3)no2)cc(=O)[nH]1 (stereo not drawn) [Example 12, 2-Methyl-6-(3-(1-(4-(trifluoromethyl)phenyl)ethyl)-1,2,4-oxadiazol-5-yl)pyrimidin-4(3H)-one] | 2410 | 1870
9 | Cc1nc(-c2cncc(C(C)c3ccc(C(F)(F)F)cc3)n2)cc(=O)[nH]1 (stereo not drawn) [Example 29, 2-Methyl-6-(6-(1-(4-(trifluoromethyl)phenyl)ethyl)pyrazin-2-yl)pyrimidin-4(3H)-one] | 1660 | 1710
10 | Cc1nc(-c2ccnc(C(C)(O)c3ccc(C(F)(F)F)cc3)c2)cc(=O)[nH]1 (stereo not drawn) [Example 28, 6-(2-(1-hydroxy-1-(4-(trifluoromethyl)phenyl)ethyl)pyridin-4-yl)-2-methylpyrimidin-4(3H)-one] | – | 2880
11 | Cc1nc(-c2cn(C(C)c3ccc(C(F)(F)F)cc3)cn2)cc(=O)[nH]1 (single isomer, unassigned) [Example 16, (R)- or (S)-2-methyl-6-(1-(1-(4-(trifluoro-methyl)phenyl)ethyl)-1H-imidazol-4-yl) pyrimidin-4 (3H)-one] | – | 340
12 | Cc1nc(-c2cncc(C(O)c3ccc(C(F)(F)F)cc3)c2)cc(=O)[nH]1 (stereo not drawn) [Example 25, 6-(5-(Hydroxy(4-(trifluoromethyl)phenyl)methyl)pyridin-3-yl)-2-methylpyrimidin-4(3H)-one] | – | 12900
13 | Cc1nc(-c2cn([C@H](C)c3ccc(C(F)(F)F)cc3F)cn2)cc(=O)[nH]1 (single isomer, unassigned) [Example 14] | – | 298
14 | Cc1nc(-c2nc(C(C)c3ccc(C(F)(F)F)cc3)cs2)cc(=O)[nH]1 (stereo not drawn) [Example 3, 2-Methyl-6-(4-(1-(4-(trifluoromethyl)phenyl)ethyl)thiazol-2-yl)pyrimidin-4(3H)-one] | – | 532
15 | Cc1nc(-c2cncc(C(C)(O)c3ccc(C(F)(F)F)cc3)c2)cc(=O)[nH]1 (stereo not drawn) [Example 26, 6-(5-(1-Hydroxy-1-(4-(trifluoromethyl)phenyl)ethyl)pyridin-3-yl)-2-methylpyrimidin-4(3H)-one] | – | 1810
16 | Cc1nc(-c2ccnc(C(C)c3ccc(C(F)(F)F)cc3)c2)cc(=O)[nH]1 (stereo not drawn) [Example 27, 2-Methyl-6-(2-(1-(4-(trifluoromethyl)phenyl)ethyl)pyridin-4-yl)pyrimidin-4(3H)-one] | – | 1270
